Test system: plaque forming cells, antibody specific to sheep red blood cells
Assay: Jerne Hemolytic Plaque Assay
Format: in vivo, mice
Procedure: This assay measures the IgM or IgG isotypes of specific antibody produced by antigen used to immunize the mice. […] The direct assay detects IgM and the indirect assay detects IgG-specific antibody.
Washed spleen cells are added to an agarose (FMC, Rockland, Me.) preparation containing sheep red blood cells (SRBC) and guinea pig complement. A drop of this mixture is transferred to a small petri dish; a cover slip is then placed over the drop to flatten it. The agarose prep is allowed to solidify. Then, the dishes are placed in a small humidified changer inside a CO-2 incubator overnight.
Small pinpoint cleared areas (plaques) will be observed under the cover slip. The cleared areas are caused by antibody, specific to the SRBC's being released by stimulated spleen cells and in conjunction with the complement, lyse surrounding SRBC's. These plaque forming cells (PFC's) are counted, and calculations are performed to obtain PFC's per […] spleen cells.
1. Spleens are harvested from mice according to a standard procedure and adjusted to a final concentration of 20% in […].
14. Count and record the number of hemolytic plaques per plate. Average plaque counts between the duplicate sets. Multiply the average number of plaques per group by 2.5 to obtain the number of plaque forming cells per million spleen cells.

O=C1CCC(C2(O)C(=O)OC3C(O)COC32O)C1 (single isomer, unassigned) [L-KCPBL-A] was tested, and the “% INCREASE” value (25 mg/kg (Table 12)) was 233%, the PFC (25 mg/kg (Table 12)) was 162.5 PFC/1 MILLION CELLS and the “% INCREASE” value (50 mg/kg (Table 12)) was 151%. The PFC (50 mg/kg (Table 12)) was 122.5 PFC/1 MILLION CELLS, the “% INCREASE” value (100 mg/kg (Table 12)) was 120% and the PFC (100 mg/kg (Table 12)) was 107.5 PFC/1 MILLION CELLS. For the same molecule, the “% INCREASE” value (200 mg/kg (Table 12)) was 202%, the PFC (200 mg/kg (Table 12)) was 147.5 PFC/1 MILLION CELLS and the “antibody production / PFC, dose dependence” value (vs control) was “stimulates T-dependent antibody production, but not in a dose response fashion”.

From patent US5098933A, “Pharmaceutically useful Michael addition products of unsaturated aldehydes and ketones and ascorbic acid” (Theracel Corporation, priority 1990, dated 1992)
